Assay results reported in patent publication US9566282B2, “Methods for identifying and validating selective anti-cancer stem cell agents” (MCMASTER UNIVERSITY, priority 2011, dated 2017).
Counter-ions that a name gives are not always drawn.

Columns and labels:
[1] = tested on: HL-60, MV4-11 and OCI-AML3; assay: Cytotoxicity to leukemic cell lines (normalized cell number, 72 h); type: cell-based; conditions: 10 μM
Procedure: (§1) All three lines are leukemic cell lines. HL-60 was derived from promyelocytic AML whereas MV 4-11 and OCI-AML3 are representative of AML. Each compound was incubated with the cells for 72 h. The control was DMSO (ie the vehicle used for the compound) for 72 h. Each condition had three replicates.
The dopamine receptor antagonist and phenothiazine-related compound chlorpromazine was also investigated for effects on the AML cell lines HL-60, MV4-11 and OCI-AML3. Testing was performed as set out in Example 1.

[2] = tested on: normal HSCs / HSPC (CB lin-); assay: Methylcellulose colony-forming assay, normal HSC/HSPC; type: cell-based, human; conditions: for HSPC CFU potential: 24 h treatment before plating, 0.1, 1, 10 μM tested
Procedure: Normal HSCs and progenitors were sourced from either mobilized peripheral blood or umbilical cord blood of health patients.
Patient HSPC and AML samples were treated with compound or DMSO-vehicle (0.1%) for 24 h prior to CFU plating or xenotransplantation studies.
AML patient or CB lin− cells were cultured 24 hours in the presence of compound or DMSO-vehicle (0.1%) control. […] CB lin− cells were plated at 1000 cells/mL in Methocult GF H4434 (Stem Cell Technologies). Colonies were scored after 14 days of culture using standard morphological criteria.

[3] = tested on: primary AML cells (AML blast CFU); assay: Methylcellulose blast-CFU assay, primary AML cells; type: cell-based, human; conditions: for AML-blast CFU potential / formation: 24 h treatment before plating, salinomycin at 1 μM and 10 μM
Source text: (§2) Due to the bioavailability of dopamine in fetal bovine serum (FBS) (Little et al., 2002), serum-free conditions were employed to assess the role of DRs in AML. […] DR D2-family and D1-family exert opposing actions on intracellular signaling leading to differential biological effects (Self et al., 1996).

[4] = tested on: HL-60, OCI-AML2 and OCI-AML3; assay: Cytotoxicity of DR agonists/antagonists against AML cell lines; type: cell-based; conditions: 72 h; CLOZ at higher concentrations
Procedure: as §1
A series of dopamine receptor agonists, D3-antagonists, DR1 & 5-antagonists and multi-receptor antagonists were tested for cytotoxicity against three AML cell lines HL-60, OCI-AML2 and OCI-AML3. Testing was performed as set out in Example 1.

[5] = tested on: neoplastic hPSCs (v1H9-Oct4-GFP); assay: Flow cytometry of Oct4+ cells in neoplastic hPSC; type: cell-based, human; conditions: three concentrations; compared with BMP4 differentiation controls
[6] = tested on: neoplastic hPSCs; assay: p53 and p21 staining of neoplastic hPSC; type: cell-based, human; conditions: 24 h; compounds at 10 μM
Source text: Antibodies used for immunocytochemistry were the following: Oct3/4 (BD Trunsduction Laboratories, cat#611203), Sox2 (R&D, cat#AF2018). To detect human hematopoietic cells, Pacific Blue−, PE−, APC− or FITC labeled anti-human CD45 was used (BD Biosciences). FITC anti-CD33, PE anti-CD13, FITC anti-CD41a, FITC anti-HLA DR, and PE anti-CD19 antibodies were obtained from BD Pharmingen. PE anti-CD14, PE anti-CD15 and PE anti-GlyA were acquired from Immunotech Beckman Coulter. To determine pluripotency, PE anti-SSEA3 (BD Biosciences) and PE- or AlexaFluor488 anti-Oct4 (BD Biosciences). Rabbit anti-human dopamine receptor antibodies; DRD1 (Cat#324390), DRD2 (Cat#324393), DRD3 (Cat#324402), DRD4 (Cat#324405) and DRD5 (Cat#324408) were sourced from EMD Chemical. Anti-rabbit Alexa-Fluor-488 (Molecular Probes) was used as the secondary antibody. Primary anti-p53 (Cat#2527) and anti-p21 (Cat#2947) rabbit IgG sourced from Cell Signaling Technology were used to stain fixed and permeabilized cells. Anti-rabbit alexa-Fluor-546 (Molecular Probes) was used as the secondary antibody. For breast tumor staining, APC anti-CD44 and PE-CD24 were sourced from BD Pharmingen.

[7] = tested on: neoplastic hPSCs; assay: TaqMan Low-Density Array-qPCR of differentiation genes; type: cell-based, human; conditions: thioridazine-treated neoplastic hPSCs; >2 fold increase
Procedure: Cells in specific conditions were collected and RNA was extracted by using RNeasy kit (Qiagen), complementary DNA (cDNA) generation by using SuperScript III® cDNA synthesis kit (Invitrogen), pre-amplification and TaqMan® array reaction (Applied Biosystems) were performed according to manufacturer's instructions. The gene expression profile for each treated cell population was analyzed using TaqMan® Stem Cell Pluripotency Array Card on ViiA 7 Real-Time PCR System (Applied Biosystems). Each reaction sample was dispensed into loading wells on the array card and centrifuged twice at 336×g for 1 min each time, sealed, and placed in the thermal cycler. The following cycling conditions were used for all array card applications: 45° C. for 10 min, 94° C. for 10 min, and 40 cycles of 94° C. for 30 s followed by 60° C. for 1 min. Array data were normalized to 18S RNA and GAPDH and comparisons were performed using data analysis 2.0 software (Applied Biosystems).
Rapid accumulation of the cell stress marker p53 (FIG. 10d) and its transcriptional target p21 (FIG. 10e) were used to further distinguish differentiation induction from cellular toxicity.

[8] = tested on: HSPCs / HSCs (CB lin-); conditions: in vivo
Procedure: (§3) NOD.Cg-Prkdc^scid ll2rg^tm1Wjl/SzJ adult mice (NSG) were sub-lethally irradiated with 315 rads 24 hours prior transplantation. 0.8-1.0×10^7 AML MNCs or 1.5-1.8×10^5 CB lin− hematopoietic cells treated with compound or DMSO-vehicle for 24 h were injected via tail vein (IV). After 6-10 weeks, animals were culled, and the BM and spleen were analyzed for the presence of human cells by flow cytometry (LSRII, BD) and data was analyzed using FlowJo software (Tree Star Inc). For secondary HSPC transplants, equal number of engrafted human cells from CB lin− transplants were injected IV in adult irradiated NSG mice as described for primary transplants.
(§4) To delineate whether the inhibition of AML-blasts detected in vitro was due to the compounds affecting the neoplastic stem cell compartment, xenotransplantation studies (Dick, 2008) that functionally define LSCs and hematopoietic stem cells (HSCs) were conducted (FIG. 12).

[9] = tested on: AML LSCs; assay: Xenotransplantation of compound-treated AML cells into NSG mice; type: in vivo, human; conditions: 10 μM, cells treated 24 h before transplantation
Procedure: as §3, §4

[10] = tested on: AML-OCI2 and AML-OCI3; assay: Volumetric cell counts of AML lines treated with DR antagonists or agonists; type: cell-based, human; conditions: 72 h, serum-free conditions
Procedure: The number of AML-OCI2 and AML-OCI3 cells present after 72 h treatment with DR antagonists (FIG. 16b) and agonist (FIG. 16c-d) were counted by measuring the number of events within a fixed volume following the grating strategy defined by forward scatter and side scatter clustering, 7AAD− and Hoechst+.
as §2

[11] = tested on: v1O4 cells (v1H9-Oct4-GFP); assay: Library screen on variant neoplastic stem cells (LOP and cell count); type: cell-based, human; conditions: for hit: loss of pluripotency and reduction in cell counts: 10 μM or 1 μM, 72 hours, Z-score more than 3 SD
Procedure: Compounds that reduced cell counts below 100 were classified as highly toxic and not considered as useful.
Briefly, v1O4 cells were seeded into Matrigel-coated 96 well plates (5000 cells/well) containing mouse embryonic fibroblast conditioned media (MEFCM) supplemented with 8 ng/mL bFGF, and treated for 72 hours with compounds dissolved in DMSO. The final concentration of each compound used in treatment was either 10 μM or 1 μM (n=3). Control wells were treated with 0.1% DMSO (low control) or 100 ng/ml BMP4 (high control to induce LOP). At the end of 72 hours, cells were fixed, stained with Hoechst and imaged by automated microscopy. GFP intensity and Hoechst signal were quantified as measures of LOP and cell count, respectively, and compounds with a Z-score of more than 3 standard deviations from the mean for reduced cell count and LOP were chosen as hits.

[12] = tested on: AML-OCI2 and AML-OCI3; assay: Induction of apoptosis in AML cancer cell lines (normal nuclei); type: cell-based, human
[13] = tested on: v1O4 cells versus H9 cells; assay: Dose-response cell counts, v1O4 versus H9 (selective-activity potency ratio); type: cell-based, human; conditions: single 10 μM concentration point; selective at other concentrations
Procedure: The first step in the screening process, the primary screen, is shown in FIG. 21, step 1 and is also described in FIG. 17 and Example 13. […] These compounds then undergo a further set of analysis described in FIG. 21, step 2. […] 8- or 10-point dilutions for each compound are tested on variant neoplastic stem cells (V1O4) and normal stem cells (H9 cells) cells to generate dose-response curves. […] Dose response data were fit with a 4-parameter Hill equation to derive EC50, slopes, min and max values using IDBS ActivityBase software. The EC50 values are then used to calculate a selective-activity potency ratio (H9 EC50/v1O4 EC50). […] The efficacy of each compound can also be quantified by analysis if the derived min value from the 4-parameter Hill fit. An alternative metric for selective activity is an efficacy comparison. Selective EFFICACY=H9−FittedMin−v1O4−FittedMin.
Selectivity activity ratios [EC50 (v1O4)/EC50 (H9)] were calculated as discussed in Example 15 for a number of compounds screened using the methods described herein.

[14] = sorted patient AML cells, 24 h treatment

CSc1ccc2c(c1)N(CCC1CCCCN1C)c1ccccc1S2 (racemic) [thioridazine, 10-{2-[(RS)-1-Methylpiperidin-2-yl]ethyl}-2-methylsulfanylphenothiazine]
normalized cell number / toxicity [1]: reduced to almost zero
colony forming potential of normal HSCs ([2]; 10 μM, DMSO control about 100, at least 14 days): about 66 total colonies
HSPC CFU potential [2]: little effect on HSPC CFU potential
number of AML CFU blast colonies ([3]; 10 μM, control about 22, at least 14 days): 1.6 blast colonies
AML-blast CFU potential / formation [3]: reduced AML-blast CFU formation
blast-CFU generation, DR+ subfraction [3, 14]: reduction in blast-CFU generation
blast-CFU generation, DR− subfraction [3, 14]: no reduction
cytotoxicity of AML cell lines [4]: significant effect on cytotoxicity
cell number and levels of Oct4 in neoplastic hPSCs [5]: reduce levels of Oct4 below BMP4 differentiation controls
accumulation of p53 and p21 [6]: no accumulation of p53 or p21
differentiation-associated genes upregulated [7]: 21 of 50
HSC self-renewal [8]: did not affect HSC self-renewal
AML LSC capacity (CD45+ CD33+ blast engraftment) [9]: significantly reduce leukemic disease-initiating AML LSCs
number of AML cells [10]: reduced the number of AML cells
hit: loss of pluripotency and reduction in cell counts [11]: identified as a hit
signs of cell stress/death (Hoechst nuclear stain) ([11]; 10 μM, 3-day treatment): less signs of cell stress/death than cells treated with thiostrepton
induction of apoptosis / cell death [12]: exerts its effects on these cell lines through cell death

Br.CCCN(CCC)[C@@H]1CCc2ccc(O)cc2C1 [7OH-DPAT, R(+)-7-Hydroxy-DPAT hydrobromide]
number of AML cells [10]: increased the number of AML cells

Nc1nc2nn[nH]c2c(=O)[nH]1 [8-azaguanine]
selectivity for cancer stem cells at a single concentration point [13]: would have not be considered selective for cancer stem cells

Cn1cc(C2=C(c3cn(CCCSC(=N)N)c4ccccc34)C(=O)NC2=O)c2ccccc21 [31-8220]
selectivity for cancer stem cells at a single concentration point [13]: would have not be considered selective for cancer stem cells

Oc1cc2c(cc1O)[C@@H](c1ccccc1)CNCC2 [SKF38393, (R)-(+)-SKF-38393 hydrochloride]
number of AML cells [10]: significant reduction in AML cell number

CN(C)CCCN1c2ccccc2Sc2ccc(Cl)cc21 [chlorpromazine, Chlorpromazine hydrochloride]
normalized cell number / toxicity [1]: toxic to AML cell lines
cytotoxicity of AML cell lines [4]: significant effect on cytotoxicity
number of AML cells [10]: reduced the number of AML cells
hit: loss of pluripotency and reduction in cell counts [11]: did not have a comparable effect on v1O4 cells

CN1CCN(C2=Nc3cc(Cl)ccc3Nc3ccccc32)CC1 [clozapine, Clozapine]
cytotoxicity of AML cell lines [4]: significant effect on cytotoxicity

COc1cc([C@@H]2c3cc4c(cc3[C@@H](O[C@@H]3O[C@@H]5CO[C@@H](C)O[C@H]5[C@H](O)[C@H]3O)[C@H]3COC(=O)[C@H]23)OCO4)cc(OC)c1O [etoposide]
accumulation of p53 and p21 [6]: high levels of p53 and p21

OCCN1CCN(CCCN2c3ccccc3Sc3ccc(C(F)(F)F)cc32)CC1 [fluphenazine]
hit: loss of pluripotency and reduction in cell counts [11]: identified as hits

OC(c1cc(C(F)(F)F)nc2c(C(F)(F)F)cccc12)C1CCCCN1 (stereo not shown) [mefloquine]
HSPC CFU potential [2]: little effect on HSPC CFU potential
AML-blast CFU potential / formation [3]: reduced AML-blast CFU formation
cell number and levels of Oct4 in neoplastic hPSCs [5]: reductions in cell number and the levels of Oct4
AML LSC capacity (CD45+ CD33+ blast engraftment) [9]: ineffective in reducing AML LSC capacity

CCCCc1ccc2[nH]c(NC(=O)OC)nc2c1 [parbendazole]
selectivity for cancer stem cells at a single concentration point [13]: would have not be considered selective for cancer stem cells

OCCN1CCN(CCCN2c3ccccc3Sc3ccc(Cl)cc32)CC1 [perphenazine]
hit: loss of pluripotency and reduction in cell counts [11]: identified as hits

CN1CCN(CCCN2c3ccccc3Sc3ccc(Cl)cc32)CC1 [prochlorperazine]
hit: loss of pluripotency and reduction in cell counts [11]: identified as hits

CC[C@@H](C(=O)[C@@H](C)[C@@H](O)[C@H](C)[C@@H]1O[C@@H]([C@@H](CC)C(=O)O)CC[C@@H]1C)[C@H]1O[C@]2(C=C[C@@H](O)[C@]3(CC[C@@](C)([C@H]4CC[C@](O)(CC)[C@H](C)O4)O3)O2)[C@H](C)C[C@@H]1C [salinomycin]
HSPC CFU potential [2]: reduced HSPC CFU potential over all doses tested
AML-blast CFU potential / formation [3]: reduced AML-blast CFU potential

CN1CCN(CCCN2c3ccccc3Sc3ccc(C(F)(F)F)cc32)CC1 [trifluoperazine]
hit: loss of pluripotency and reduction in cell counts [11]: identified as hits

CN(C)CCCN1c2ccccc2Sc2ccc(C(F)(F)F)cc21 [triflupromazine]
hit: loss of pluripotency and reduction in cell counts [11]: identified as hits

BMP4: positive control that induces differentiation / loss of pluripotency, 100 ng/ml
accumulation of p53 and p21 [6]: no accumulation of p53 or p21
